# Results taken from patent US10597388B2, “Pyridazinone herbicides” (FMC CORPORATION, priority 2014, dated 2020).
# How the values were obtained:
# Experiment in all cases: Test F mixtures with commercial herbicides, Post- or Pre-emergence
# Type in all cases: in vivo
# [1] = test system: ALOMY, blackgrass (Alopecurus myosuroides); conditions: Post-emergence, scale 0-100
# How it was run: (§1)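 Seeds were sown in Sandy Loam soil and sprayed pre- or post-emergence with mixtures in a non-phytotoxic solvent, rates as g a.i./ha. Greenhouse, ~16 h photoperiod, 24-30/19-21° C. day/night. Visual 0–100 rating vs controls at 20 d; expected effect from Colby's Equation.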
# [2] = test system: AMARE, redroot pigweed (Amaranthus retroflexus)
# How it was run: as §1
# [3] = test system: AMBEL, common ragweed (Ambrosia elatior)
# How it was run: as §1
# [4] = test system: ECHCG, barnyardgrass (Echinochloa crus-galli)
# How it was run: as §1
# [5] = test system: GALAP, galium (Galium aparine); conditions: Post-emergence, scale 0-100
# How it was run: as §1
# [6] = test system: KCHSC, kochia (Kochia scoparia)
# How it was run: as §1
# [7] = test system: LOLMU, Italian Ryegrass (Lolium multiflorum)
# How it was run: as §1
# [8] = test system: SETVI, giant foxtail (Setaria faberii)
# How it was run: as §1
# [9] = Post-emergence, Rate 16 g a.i./ha, scale 0-100
# [10] = Post-emergence, Rate 62 g a.i./ha, scale 0-100
# [11] = Pre-emergence, Rate 16 g a.i./ha, applied alone, 20 d, scale 0 to 100
# [12] = Pre-emergence, Rate 62 g a.i./ha, applied alone, 20 d, scale 0 to 100
compound,measurement,setting,value
"Cc1ccc2sc(C)c(-c3c(O)c(C)nn(C)c3=O)c2c1 [Compound 1, 4-(2,5-dimethylbenzo[b]thien-3-yl)-5-hydroxy-2,6-dimethyl-3(2H)-pyridazinone]",ALOMY Obsd.,[1]; Rate 16 g a.i./ha,0.0
same,ALOMY Obsd.,[1]; Rate 62 g a.i./ha,35.0
same,AMARE Obsd.,[2]; [9],30.0
same,AMARE Obsd.,[2]; [10],100.0
same,AMARE Obsd.,[2]; [11],20
same,AMARE Obsd.,[2]; [12],90
same,AMBEL Obsd.,[3]; [9],95.0
same,AMBEL Obsd.,[3]; [10],100.0
same,AMBEL Obsd.,[3]; [11],65
same,AMBEL Obsd.,[3]; [12],90
same,ECHCG Obsd.,[4]; [9],0.0
same,ECHCG Obsd.,[4]; [10],0.0
same,ECHCG Obsd.,[4]; [11],0
same,ECHCG Obsd.,[4]; [12],20
same,GALAP Obsd.,[5]; Rate 16 g a.i./ha,65.0
same,GALAP Obsd.,[5]; Rate 62 g a.i./ha,100.0
same,KCHSC Obsd.,[6]; [9],60.0
same,KCHSC Obsd.,[6]; [10],100.0
same,KCHSC Obsd.,[6]; [11],0
same,KCHSC Obsd.,[6]; [12],25
same,LOLMU Obsd.,[7]; [9],65.0
same,LOLMU Obsd.,[7]; [10],100.0
same,LOLMU Obsd.,[7]; [11],65
same,LOLMU Obsd.,[7]; [12],100
same,SETVI Obsd.,[8]; [9],0.0
same,SETVI Obsd.,[8]; [10],40.0
same,SETVI Obsd.,[8]; [11],0
same,SETVI Obsd.,[8]; [12],60
